Earlier results in US20230158030A1, “METHODS AND COMPOSITION FOR TREATMENT OF COVID-19 ILLNESS REQUIRING HOSPITALIZATION” (OHIO STATE INNOVATION FOUNDATION, priority 2020, published 2023).

Experiments:
covid-19 = conditions: active covid-19 syndrome
T-cell function = conditions: TLR agonists, PD1 blockade, CAR-T cells
[1] = tested on: CAR-T cell mediated cytokine release syndrome; conditions: murine CAR-T cytokine release syndrome model
pneumococcal pneumonia = conditions: murine pneumococcal pneumonia
[2] = intranasally to mice starting 72 h after lethal infection

Which “benefit among ill patients” value (covid-19) does the source give for `CCN(CCO)CCCC(C)Nc1ccnc2cc(Cl)ccc12` (stereo not shown) [hydroxychloraquine] here?
Its value is “antidotal benefit”.

For `C=CC(=O)N1CCC[C@@H](n2nc(-c3ccc(Oc4ccccc4)cc3)c3c(N)ncnc32)C1` [ibrutinib, 1-[(3R)-3-[4-amino-3-(4-phenoxyphenyl)pyrazolo[3,4-d]pyrimidin-1-yl]piperidin-1-yl]prop-2-en-1-one], which “enhancement of other T-cell based therapies” value (T-cell function) is on record?
Its value is “enhance other T-cell based therapies”.

And the “T-cell expansion or killing” value [1]?
Its value is “not abrogating T-cell expansion or killing”.

And the survival [1]?
Its survival is “improved survival”.

And the “antibiotic mediated killing of bacteria” value (pneumococcal pneumonia)?
Its value is “not impaired”.

And the “monocyte and neutrophil influx into the lung, alveolar macrophage activation, neutrophil influx, cytokine release and plasma leakage” value (pneumococcal pneumonia)?
The value was “negatively influence”.

What about the overall survival (influenza A virus; [2]) of the same compound?
Its overall survival is “improved overall survival”.

And the weight loss (influenza A virus; [2])?
Its weight loss is “diminished weight loss”.

What about the “inflammatory mediators TNFalpha, IL-1beta, IL-6, KC, and MCP-1” value (influenza A virus; mice, lethal influenza A) of the same compound?
Its value is “diminished”.

What about the “morphological changes to the lungs” value (influenza A virus; mice, lethal influenza A) of the same compound?
Its value is “decreased alveolar hemorrhage, interstitial thickening, and the presence of alveolar exudate”.
